From patent publication US12473250B2, “Molecular design of new antibiotics and antibiotic adjuvants against MCR strains” (priority 2019, dated 2025)

Key:
[1] = test system: PAE strains (CRE strains, colistin sensitive); assay: MIC of polymyxin B or colistin alone (Table 4); assay type: cell-based, P. aeruginosa; design: unit: μg/mL
Experimental: (§1) MIC experiments of the antimicrobial agents were determined by a modified broth microdilution method in accordance with the Clinical and Laboratory Standards Institute (CLSI) guidelines using 96 well culture plates. In brief, serial dilutions of all plates were prepared at different concentrations (μg). The inoculum suspension was prepared by adding isolated colonies from a 18-20 hours on TSA plate into phosphate buffer (0.31 mM, pH 7.2) or in water for injection (BBraun) and adjusting the suspension to a turbidity equivalent to 0.5 McFarland Standard. Each well contained a final bacterial concentration of approximately 5×10^5 colony forming units (CFU)/mL. The plate was covered and incubated at 35° C. for 24 hours. […] For the microdilution plates, turbidity in wells can be measured at OD600 using TECAN infinite M200Pro. MIC was determined as […] concentration that gives a 99 percent inhibition.

[2] = test system: EC strains (CRE strains, colistin sensitive); assay: MIC of polymyxin B or colistin alone (Table 4); assay type: cell-based, E. coli; design: unit: μg/mL
Experimental: as §1

[3] = test system: colistin resistant MCR (−) E. Coli strains; assay: MIC, broth microdilution, compound alone; assay type: cell-based
Summary of the method: (§2)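 Wells held ~5×10^5 CFU/mL of bacteria prepared to 0.5 McFarland from overnight TSA colonies and exposed to serially diluted agents, following modified CLSI microdilution. After 24 h at 35 °C, growth judged by turbidity (OD600 possible); 99% inhibition sets the MIC.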

[4] = test system: colistin resistant MCR (−) E. Cloacae strain 7023456439; assay: MIC, broth microdilution, compound alone; assay type: cell-based; details: strain 7023456439 E. Cloacae
Summary of the method: as §2

Colistin
MIC (antibiotic alone) ([1]; strain PAE 4877): 1.56
MIC (antibiotic alone) ([1]; strain PAE 5790): 1.56
MIC (antibiotic alone) ([1]; strain PAE 14476): 1.56
MIC (antibiotic alone) ([2]; strain EC 17232): 0.195
MIC (antibiotic alone) ([2]; strain EC 17528): 0.78
MIC (antibiotic alone) ([2]; strain EC 19963): 1.56
MIC ([3]; strain 6083672926, MCR (−)): 12.5 µg/mL
MIC ([3]; strain 7023446108, MCR (−)): 6.25 µg/mL
MIC ([3]; strain 7033607097, MCR (−)): 6.25 µg/mL
MIC [4]: 100 µg/mL
